Where “and” joins values, the source holds several entries; their conditions need not be identical. Equal values may be shown once. Toxic doses and inconclusive results are not listed. No stated cut-off is given here; in the data, active means T/C of 150% or more; inactive means T/C below 125%.
Test system: L1210 leukemia ip in BDF1 mice, survival T/C
Experiment: NCI In Vivo Anticancer Drug Screen. Data for tumor model L1210 Leukemia (intraperitoneal) in B6D2F1 (BDF1) mice
Settings: endpoint: mean survival time, higher = longer survival
How it was run: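 In this screen, tumor-bearing mice given compound are compared to those given vehicle, and their survival values are reported as a treated-to-control quotient.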

[1] = dose: 25.0 mg/kg/injection, schedule: Q01DX009 (ip), vehicle: saline with Tween-80
[2] = dose: 50.0 mg/kg/injection, schedule: Q01DX009 (ip), vehicle: saline with Tween-80
[3] = dose: 100.0 mg/kg/injection, schedule: Q01DX009 (ip), vehicle: saline with Tween-80
[4] = dose: 200.0 mg/kg/injection, schedule: Q01DX009 (ip), vehicle: saline with Tween-80
[5] = dose: 50.0 mg/kg/injection, schedule: Q01DX001 (ip), vehicle: saline
[6] = dose: 100.0 mg/kg/injection, schedule: Q01DX001 (ip), vehicle: saline
[7] = dose: 200.0 mg/kg/injection, schedule: Q01DX001 (ip), vehicle: saline
[8] = dose: 400.0 mg/kg/injection, schedule: Q01DX001 (ip), vehicle: saline
[9] = dose: 100.0 mg/kg/injection, schedule: Q04DX003 (ip), vehicle: Klucel (hydroxypropylcellulose) (HPC)
[10] = dose: 100.0 mg/kg/injection, schedule: Q04DX003 (ip), vehicle: saline with Tween-80
[11] = dose: 200.0 mg/kg/injection, schedule: Q04DX003 (ip), vehicle: Klucel (hydroxypropylcellulose) (HPC)
[12] = dose: 200.0 mg/kg/injection, schedule: Q04DX003 (ip), vehicle: saline with Tween-80
[13] = dose: 100.0 mg/kg/injection, schedule: Q04DX003 (ip), vehicle: saline
[14] = dose: 200.0 mg/kg/injection, schedule: Q04DX003 (ip), vehicle: saline
[15] = dose: 400.0 mg/kg/injection, schedule: Q04DX003 (ip), vehicle: saline with Tween-80
[16] = dose: 100.0 mg/kg/injection, schedule: Q01DX009 (ip), vehicle: Klucel (hydroxypropylcellulose) (HPC)
[17] = dose: 200.0 mg/kg/injection, schedule: Q01DX009 (ip), vehicle: Klucel (hydroxypropylcellulose) (HPC)

Measured: T/C

O=C1C2=C(C(=O)c3ccccc31)C(=O)C1CC=CCC1C2=O (stereo not drawn)
inactive: dose: 0.25 mg/kg/injection, schedule: Q04DX003 (ip), vehicle: saline with Tween-80 102 % of control | dose: 0.5 mg/kg/injection, schedule: Q04DX003 (ip), vehicle: saline with Tween-80 104 % of control | dose: 1.0 mg/kg/injection, schedule: Q04DX003 (ip), vehicle: saline with Tween-80 98 % of control | dose: 2.0 mg/kg/injection, schedule: Q04DX003 (ip), vehicle: saline with Tween-80 96 % of control | dose: 4.0 mg/kg/injection, schedule: Q04DX003 (ip), vehicle: saline with Tween-80 110 % of control | dose: 8.0 mg/kg/injection, schedule: Q04DX003 (ip), vehicle: saline with Tween-80 100 % of control and 105 % of control | dose: 16.0 mg/kg/injection, schedule: Q04DX003 (ip), vehicle: saline with Tween-80 102 % of control and 103 % of control | [1] 106 % of control | dose: 32.0 mg/kg/injection, schedule: Q04DX003 (ip), vehicle: saline with Tween-80 103 % of control | [2] 106 % of control | dose: 64.0 mg/kg/injection, schedule: Q04DX003 (ip), vehicle: saline with Tween-80 97 % of control and 105 % of control | [3] 110 % of control | dose: 128.0 mg/kg/injection, schedule: Q04DX003 (ip), vehicle: saline with Tween-80 105 % of control | [4] 101 % of control | dose: 256.0 mg/kg/injection, schedule: Q04DX003 (ip), vehicle: saline with Tween-80 94 % of control

Cc1cc(Cl)c(Cl)cc1NC(=O)C(Br)C(Br)c1ccccc1 (stereo not drawn)
inactive: dose: 100.0 mg/kg/injection, schedule: Q01DX009 (ip), vehicle: other 92 % of control | dose: 200.0 mg/kg/injection, schedule: Q01DX009 (ip), vehicle: other 92 % of control | dose: 400.0 mg/kg/injection, schedule: Q01DX009 (ip), vehicle: other 92 % of control

N=C(N)S/C=C(/F)C(F)(F)CBr
inactive: [5] 95 % of control | [6] 101 % of control | [7] 113 % of control | [8] 101 % of control

NC(=S)N/N=C1/CCCCC12CCCCC2
inactive: [5] 116 % of control | [6] 91 % of control | [7] 124 % of control | [8] 100 % of control

CC(C)(CBr)COC(=O)Nc1cccc2ccccc12
inactive: [2] 91 % of control | [4] 87 % of control

Cc1cc2nc(-c3cc4cc(Cl)cc(Cl)c4oc3=O)[nH]c2cc1C
inactive: dose: 100.0 mg/kg/injection, schedule: Q04DX002 (ip), vehicle: Klucel (hydroxypropylcellulose) (HPC) 108 % of control | dose: 200.0 mg/kg/injection, schedule: Q04DX002 (ip), vehicle: Klucel (hydroxypropylcellulose) (HPC) 104 % of control | dose: 400.0 mg/kg/injection, schedule: Q04DX002 (ip), vehicle: Klucel (hydroxypropylcellulose) (HPC) 115 % of control

Cc1c(C(=O)O)c(C)c([N+](=O)[O-])c(C)c1[N+](=O)[O-]
inactive: dose: 50.0 mg/kg/injection, schedule: Q04DX003 (ip), vehicle: saline with Tween-80 95 % of control | [9] 90 % of control | [10] 97 % of control | [11] 95 % of control | [12] 97 % of control | dose: 400.0 mg/kg/injection, schedule: Q04DX003 (ip), vehicle: Klucel (hydroxypropylcellulose) (HPC) 93 % of control

CC(O)c1cccc(N(C)C)c1 (stereo not drawn)
inactive: dose: 50.0 mg/kg/injection, schedule: Q01DX009 (ip), vehicle: acetone 93 % of control | dose: 100.0 mg/kg/injection, schedule: Q01DX009 (ip), vehicle: acetone 95 % of control | dose: 100.0 mg/kg/injection, schedule: Q04DX003 (ip), vehicle: acetone 96 % of control | dose: 200.0 mg/kg/injection, schedule: Q01DX009 (ip), vehicle: acetone 93 % of control | dose: 200.0 mg/kg/injection, schedule: Q04DX003 (ip), vehicle: acetone 96 % of control | dose: 400.0 mg/kg/injection, schedule: Q04DX003 (ip), vehicle: acetone 101 % of control

ClCCN(CCCl)c1ccc(-c2csc(COc3ccccc3)n2)cc1
inactive: dose: 100.0 mg/kg/injection, schedule: Q01DX001 (ip), vehicle: carboxymethylcellulose (CMC) 102 % of control | dose: 200.0 mg/kg/injection, schedule: Q01DX001 (ip), vehicle: carboxymethylcellulose (CMC) 96 % of control | dose: 400.0 mg/kg/injection, schedule: Q01DX001 (ip), vehicle: carboxymethylcellulose (CMC) 91 % of control

Nc1nc2c(c(-c3ccc(Cl)cc3)n1)CN(Cc1ccccc1)C2=O
inactive: dose: 50.0 mg/kg/injection, schedule: Q01DX009 (ip), vehicle: saline 98 % of control | dose: 100.0 mg/kg/injection, schedule: Q01DX009 (ip), vehicle: saline 104 % of control | [13] 101 % of control | dose: 200.0 mg/kg/injection, schedule: Q01DX009 (ip), vehicle: saline 106 % of control | [14] 100 % of control | dose: 400.0 mg/kg/injection, schedule: Q04DX003 (ip), vehicle: saline 89 % of control

CCC(C)C(C)NC(C)=O (stereo not drawn)
inactive: [13] 101 % of control | [14] 113 % of control

Clc1ccc(/C=C/c2nccc(Cl)n2)cc1
inactive: [10] 106 % of control | [12] 106 % of control | [15] 106 % of control

Brc1ccc(-c2nc3ccccc3[nH]2)cc1
inactive: [3] 93 % of control | [10] 101 % of control | [4] 93 % of control | [12] 104 % of control | dose: 400.0 mg/kg/injection, schedule: Q01DX009 (ip), vehicle: saline with Tween-80 93 % of control | [15] 101 % of control

O=C(c1ccccc1)C(SC(=S)OCc1ccccc1)c1ccccc1 (stereo not drawn)
inactive: [1] 98 % of control | [2] 100 % of control | [3] 96 % of control

Cc1cc(=O)[nH]c(N/N=C/c2ccco2)n1
inactive: dose: 50.0 mg/kg/injection, schedule: Q01DX009 (ip), vehicle: Klucel (hydroxypropylcellulose) (HPC) 96 % of control | [16] 96 % of control | [9] 87 % of control | [17] 95 % of control | [11] 90 % of control

OC/C=C\C1(O)CCCCC1
inactive: dose: 75.0 mg/kg/injection, schedule: Q01DX001 (ip), vehicle: saline 98 % of control | dose: 150.0 mg/kg/injection, schedule: Q01DX001 (ip), vehicle: saline 96 % of control

CC(C)(C)N
inactive: dose: 100.0 mg/kg/injection, schedule: Q04DX002 (ip), vehicle: saline 101 % of control | dose: 200.0 mg/kg/injection, schedule: Q04DX002 (ip), vehicle: saline 101 % of control | dose: 400.0 mg/kg/injection, schedule: Q04DX002 (ip), vehicle: saline 97 % of control

CCOC(=O)c1ccc(NC(C)=O)o1
inactive: dose: 10.0 mg/kg/injection, schedule: Q01DX001 (ip), vehicle: carboxymethylcellulose (CMC) 107 % of control | dose: 20.0 mg/kg/injection, schedule: Q01DX001 (ip), vehicle: carboxymethylcellulose (CMC) 95 % of control | dose: 40.0 mg/kg/injection, schedule: Q01DX001 (ip), vehicle: carboxymethylcellulose (CMC) 103 % of control | dose: 80.0 mg/kg/injection, schedule: Q01DX001 (ip), vehicle: carboxymethylcellulose (CMC) 92 % of control

COc1ccc(NC(c2ccco2)P(=O)(c2ccccc2)c2ccccc2)cc1 (stereo not drawn)
inactive: [16] 91 % of control | [17] 104 % of control | dose: 400.0 mg/kg/injection, schedule: Q01DX009 (ip), vehicle: Klucel (hydroxypropylcellulose) (HPC) 98 % of control

— PubChem BioAssay AID248 (DTP/NCI, 2004)
